In assay [1] the test system is soybean. The assay is described as follows: postemergence herbicidal activity on soybean. Conditions: Glycine max, post-emergence, 0.3 Kg/Ha, after 12-17 days, read-out: POSTEMERGENCE HERBICIDAL ACTIVITY (% CONTROL) SOY. It is filed as in vivo, Glycine max var. Winchester. How it is done:
(§1) The (oxaalkyl)phenyl-substituted heterocycles of this invention were tested for pre- and postemergence herbicidal activity using a variety of crops and weeds. The test plants included soybean (Glycine max var. Winchester),field corn (Zea mays var. Pioneer 3732), wheat (Triticum aestivum var. Lew), morningglory (Ipomea lacunosa or Ipomea hederacea), […] (Abutilon theophrasti), green foxtail (Setaria viridis), Johnsongrass (Sorghum halepense), blackgrass (Aloepecurus myosuroides), common chickweed (Stellaria media), and common cocklebur (Xanthium strumarium L.).
(§2) For preemergence testing, two disposable fiber flats (8 cm×15 cm×25 cm) for each rate of application of each candidate herbicide were filled to an approximate depth of 6.5 cm with steam-sterilized sandy loam soil. The soil was leveled and impressed with a template to provide five evenly spaced furrows 13 cm long and 0.5 cm deep in each flat. Seeds of soybean, wheat, corn, green foxtail, and johnsongrass were planted in the furrows of the first flat, and seeds of velvetleaf, morningglory, common chickweed, cocklebur, and blackgrass were planted in the furrows of the second flat. The five-row template was employed to firmly press the seeds into place. A topping soil of equal portions of sand and sandy loam soil was placed uniformly on top of each flat to a depth of approximately 0.5 cm. Flats for postemergence testing were prepared in the same manner except that they were planted 9-14 days prior to the preemergence flats and were placed in a greenhouse and watered, thus allowing the seeds to germinate and the foliage to develop.
(§3) In both pre- and postemergence tests, a stock solution of the candidate herbicide was prepared by dissolving 0.27 g of the compound in 20 mL of water/acetone (50/50) containing 0.5% v/v sorbitan monolaurate. For an application rate of 3000 g/ha of herbicide a 10 mL portion of the stock solution was diluted with water/acetone (50/50) to 45 mL.
(§4) The preemergence flats were initially subjected to a light water spray. The four flats were placed two by two along a conveyor belt (i.e., the two preemergence followed by the two postemergence flats). The conveyor belt fed under a spray nozzle mounted about ten inches above the postemergent foliage. The preemergent flats were elevated on the belt so that the soil surface was at the same level below the spray nozzle as the foliage canopy of the postemergent plants. The spray of herbicidal solution was commenced and once stabilized, the flats were passed under the spray at a speed to receive a coverage equivalent of 1000 L/ha. At this coverage the application rates are those shown in the above table for the individual herbicidal solutions. The preemergence flats were watered immediately thereafter, placed in the greenhouse and watered regularly at the soil surface. The postemergence flats were immediately placed in the green-house and not watered until 24 hours after treatment with the test solution. Thereafter they were regularly watered at ground level. After 12-17 days the plants were examined and the phytotoxicity data were recorded.
(§5) Phytotoxicity data were taken as percent control. Percent control was by a method similar to the 0 to 1 00 rating system disclosed in "Research Methods in Weed Science," 2nd ed., B. Truelove, Ed.; Southern Weed Science Society; Auburn University, Auburn, Ala., 1977.

Assay [2] has as its system wheat. The assay is described as follows: preemergence herbicidal activity on wheat. Format: in vivo, Triticum aestivum var. Lew. Conditions: Triticum aestivum, pre-emergence, 0.3 Kg/Ha, after 12-17 days, read-out: PREEMERGENCE HERBICIDAL ACTIVITY (% CONTROL) WHT. How it is done:
as §1, §2, §3, §4, §5

Assay [3] has as its system chickweed. The assay is described as follows: postemergence herbicidal activity on chickweed. It is filed as in vivo. The conditions noted are these: Stellaria media, post-emergence, 0.3 Kg/Ha, after 12-17 days, read-out: POSTEMERGENCE HERBICIDAL ACTIVITY (% CONTROL) STEME. How it is done: as §1, §2, §3, §4, §5
Assay [4] concerns morningglory. The assay is described as follows: postemergence herbicidal activity on morningglory. Conditions: Ipomoea, post-emergence, 0.3 Kg/Ha, after 12-17 days, read-out: POSTEMERGENCE HERBICIDAL ACTIVITY (% CONTROL) IPOSS. It is filed as in vivo, Ipomea lacunosa or Ipomea hederacea. How it is done: as §1, §2, §3, §4, §5
Assay [5] has as its system johnsongrass. The assay is described as follows: postemergence herbicidal activity on johnsongrass. It is filed as in vivo. The conditions noted are these: Sorghum halepense, post-emergence, 0.3 Kg/Ha, after 12-17 days, read-out: POSTEMERGENCE HERBICIDAL ACTIVITY (% CONTROL) SORHA. How it is done: as §1, §2, §3, §4, §5
Assay [6] deals with green foxtail. The assay is described as follows: preemergence herbicidal activity on green foxtail. Format: in vivo. The conditions noted are these: Setaria viridis, pre-emergence, 0.3 Kg/Ha, after 12-17 days, read-out: PREEMERGENCE HERBICIDAL ACTIVITY (% CONTROL) SETVI. How it is done:
as §1, §2, §3, §4, §5

In assay [7] the test system is soybean. The assay is described as follows: preemergence herbicidal activity on soybean. The conditions noted are these: Glycine max, pre-emergence, 0.3 Kg/Ha, after 12-17 days, read-out: PREEMERGENCE HERBICIDAL ACTIVITY (% CONTROL) SOY. It is filed as in vivo, Glycine max var. Winchester. How it is done: as §1, §2, §3, §4, §5
The test system of assay [8] is corn. The assay is described as follows: postemergence herbicidal activity on corn. Format: in vivo, Zea mays var. Pioneer 3732. Conditions: Zea mays, post-emergence, 0.3 Kg/Ha, after 12-17 days, read-out: POSTEMERGENCE HERBICIDAL ACTIVITY (% CONTROL) CRN. How it is done: as §1, §2, §3, §4, §5
For assay [9], the system named is velvetleaf. Kind of assay: preemergence herbicidal activity on velvetleaf. It is filed as in vivo. Conditions: Abutilon theophrasti, pre-emergence, 0.3 Kg/Ha, after 12-17 days, read-out: PREEMERGENCE HERBICIDAL ACTIVITY (% CONTROL) ABUTH. How it is done:
as §1, §2, §3, §4, §5

Assay [10] deals with wheat. Kind of assay: postemergence herbicidal activity on wheat. It is filed as in vivo, Triticum aestivum var. Lew. Conditions: Triticum aestivum, post-emergence, 0.3 Kg/Ha, after 12-17 days, read-out: POSTEMERGENCE HERBICIDAL ACTIVITY (% CONTROL) WHT. How it is done: as §1, §2, §3, §4, §5
In assay [11] the test system is blackgrass. Kind of assay: postemergence herbicidal activity on blackgrass. The conditions noted are these: Alopecurus myosuroides, post-emergence, 0.3 Kg/Ha, after 12-17 days, read-out: POSTEMERGENCE HERBICIDAL ACTIVITY (% CONTROL) ALOMY. It is filed as in vivo, Aloepecurus myosuroides. How it is done:
as §1, §2, §3, §4, §5

Assay [12] relates to morningglory. Kind of assay: preemergence herbicidal activity on morningglory. It is filed as in vivo, Ipomea lacunosa or Ipomea hederacea. The conditions noted are these: Ipomoea, pre-emergence, 0.3 Kg/Ha, after 12-17 days, read-out: PREEMERGENCE HERBICIDAL ACTIVITY (% CONTROL) IPOSS. How it is done: as §1, §2, §3, §4, §5
The subject of assay [13] is chickweed. The assay is described as follows: preemergence herbicidal activity on chickweed. Conditions: Stellaria media, pre-emergence, 0.3 Kg/Ha, after 12-17 days, read-out: PREEMERGENCE HERBICIDAL ACTIVITY (% CONTROL) STEME. Format: in vivo. How it is done:
as §1, §2, §3, §4, §5

Assay [14] has as its system blackgrass. Kind of assay: preemergence herbicidal activity on blackgrass. It is filed as in vivo, Aloepecurus myosuroides. The conditions noted are these: Alopecurus myosuroides, pre-emergence, 0.3 Kg/Ha, after 12-17 days, read-out: PREEMERGENCE HERBICIDAL ACTIVITY (% CONTROL) ALOMY. How it is done:
as §1, §2, §3, §4, §5

Assay [15] concerns corn. Kind of assay: preemergence herbicidal activity on corn. The conditions noted are these: Zea mays, pre-emergence, 0.3 Kg/Ha, after 12-17 days, read-out: PREEMERGENCE HERBICIDAL ACTIVITY (% CONTROL) CRN. Format: in vivo, Zea mays var. Pioneer 3732. How it is done: as §1, §2, §3, §4, §5
For the next assay, the system named is cocklebur. Kind of assay: postemergence herbicidal activity on cocklebur. Format: in vivo, Xanthium strumarium L. The conditions noted are these: Xanthium strumarium, post-emergence, 0.3 Kg/Ha, after 12-17 days, read-out: POSTEMERGENCE HERBICIDAL ACTIVITY (% CONTROL) XANPE. How it is done: as §1, §2, §3, §4, §5
Assay [16] concerns velvetleaf. The assay is described as follows: postemergence herbicidal activity on velvetleaf. Format: in vivo. The conditions noted are these: Abutilon theophrasti, post-emergence, 0.3 Kg/Ha, after 12-17 days, read-out: POSTEMERGENCE HERBICIDAL ACTIVITY (% CONTROL) ABUTH. How it is done: as §1, §2, §3, §4, §5
Assay [17] has as its system johnsongrass. Kind of assay: preemergence herbicidal activity on johnsongrass. It is filed as in vivo. Conditions: Sorghum halepense, pre-emergence, 0.3 Kg/Ha, after 12-17 days, read-out: PREEMERGENCE HERBICIDAL ACTIVITY (% CONTROL) SORHA. How it is done: as §1, §2, §3, §4, §5
For assay [18], the system named is green foxtail. The assay is described as follows: postemergence herbicidal activity on green foxtail. Conditions: Setaria viridis, post-emergence, 0.3 Kg/Ha, after 12-17 days, read-out: POSTEMERGENCE HERBICIDAL ACTIVITY (% CONTROL) SETVI. Format: in vivo. How it is done: as §1, §2, §3, §4, §5

For the compound `Cc1nn(-c2cc(CC(Cl)COC(=O)NC3CCCCC3)c(Cl)cc2F)c(=O)n1C(F)F` (stereo not shown) [Compound 35], the activity at 300 g/ha with soybean [1] was 80%; in the assay on wheat [2], 20%; with chickweed [3], 30%; with morningglory [4], 80%; in the assay on johnsongrass [5], 60%; in the assay with green foxtail [6], 100%. Besides, the activity at 300 g/ha with soybean [7] is 30%; in the assay with corn [8], 70%; with velvetleaf [9], 100%; in the assay on wheat [10], 25%; in the assay with blackgrass [11], 30%; with morningglory [12], 90%. In addition, the activity at 300 g/ha with chickweed [13] turned out to be 100%; with blackgrass [14] it was 30%; in the assay on corn [15], 10%; in the assay on cocklebur, 100%; in the assay with velvetleaf [16] it was 100%; with johnsongrass [17], 50%. Also, in the assay on green foxtail [18], the activity at 300 g/ha was found to be 80%.

In the case of `CNC(=O)OCC(Cl)Cc1cc(-n2nc(C)n(C(F)F)c2=O)c(F)cc1Cl` (stereo not shown) [Compound 31, 2-CHLORO-1-[2-CHLORO-4-FLUORO-5-[4DIFLUOROMETHYL-4,5-DIHYDRO-3-METHYL-1,2,4-TRIAZOL-5(1H)-ON-1-YL]PHENYL]PROPAN-3-YL METHYLCARBAMATE], the activity at 300 g/ha in the assay with soybean [1] came out at 95%; in the assay with wheat [2], 70%; in the assay with chickweed [3], 100%; in the assay on morningglory [4], 100%; in the assay with johnsongrass [5] it was 100%; with green foxtail [6] it was 100%. For the same compound, the activity at 300 g/ha in the assay with soybean [7] worked out at 100%; with corn [8] it was 85%; with velvetleaf [9], 100%; in the assay with wheat [10], 50%; in the assay on blackgrass [11], 75%; in the assay on morningglory [12], 100%. Besides, the activity at 300 g/ha was 100% in the assay on chickweed [13]; 70% in the assay with blackgrass [14]; 90% in the assay with corn [15]; 100% in the assay with cocklebur; 100% in the assay on velvetleaf [16]; 100% with johnsongrass [17]. Further, in the assay on green foxtail [18], the activity at 300 g/ha came out at 100%.

For `CCCCCCNC(=O)OCC(Cl)Cc1cc(-n2nc(C)n(C(F)F)c2=O)c(F)cc1Cl` (stereo not shown) [Compound 36], the activity at 300 g/ha with soybean [1] was 80%; in the assay on wheat [2], 30%; in the assay on chickweed [3] it was 100%; in the assay with morningglory [4] it was 100%; in the assay with johnsongrass [5], 75%; with green foxtail [6], 100%. In addition, the activity at 300 g/ha in the assay on soybean [7] stood at 70%; in the assay on corn [8] it was 80%; in the assay on velvetleaf [9], 100%; in the assay on wheat [10], 30%; in the assay with blackgrass [11] it was 50%; in the assay with morningglory [12] it was 100%. For the same compound, the activity at 300 g/ha amounted to 60% in the assay on chickweed [13]; 50% with blackgrass [14]; 30% with corn [15]; 100% in the assay on cocklebur; 100% with velvetleaf [16]; 70% in the assay with johnsongrass [17]. For the same compound, the activity at 300 g/ha with green foxtail [18] is 80%.

As for `Cc1nn(-c2cc(CC(Cl)COC(=O)NC(C)C)c(Cl)cc2F)c(=O)n1C(F)F` (stereo not shown) [Compound 34], the activity at 300 g/ha was found to be 90% in the assay with soybean [1]; 50% with wheat [2]; 75% with chickweed [3]; 90% in the assay with morningglory [4]; 95% with johnsongrass [5]; 100% in the assay with green foxtail [6]. Further, the activity at 300 g/ha in the assay with soybean [7] was 80%; with corn [8] it was 85%; with velvetleaf [9], 100%; in the assay on wheat [10], 50%; with blackgrass [11], 65%; in the assay with morningglory [12] it was 100%. Moreover, the activity at 300 g/ha turned out to be 100% in the assay with chickweed [13]; 60% in the assay with blackgrass [14]; 70% in the assay on corn [15]; 100% in the assay on cocklebur; 100% in the assay with velvetleaf [16]; 100% in the assay with johnsongrass [17]. In addition, the activity at 300 g/ha in the assay on green foxtail [18] was 100%.

The values above are taken from USH1923H, “Herbicidal (oxaalkyl) phenyl-substituted heterocycles” (FMC Corporation, priority 1998, dated 2000).
